# Measurements from PMC8355244, “A fragment-based approach identifies an allosteric pocket that impacts malate dehydrogenase activity” (Communications Biology, 2021).
# Biological target: T1, PfMDH (Plasmodium falciparum, UniProt Q6VVP7)
# T1 construct: The full-length WT PfMDH gene was cloned into pETM-13; made in house; host or cells: E. coli Rosetta 2 (DE3) pLysS
# Assay: Thermal shift assay (TSA)
# Format: binding
# Details: for TSA melting curve raw signal: triplicate columns; for TSA melting curve raw fluorescence signal: three replicate columns
# Outline: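 10 μM PfMDH with 1 mM compound in 100 mM Na–phosphate pH 7.4, 400 mM NaCl, 10× Sypro Orange; 1% DMSO controls. Melting inflection points taken as Tm; shifts >1 °C read as stabilization, negative shifts as destabilization.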
# T1 sequence (Q6VVP7 entry or part of it): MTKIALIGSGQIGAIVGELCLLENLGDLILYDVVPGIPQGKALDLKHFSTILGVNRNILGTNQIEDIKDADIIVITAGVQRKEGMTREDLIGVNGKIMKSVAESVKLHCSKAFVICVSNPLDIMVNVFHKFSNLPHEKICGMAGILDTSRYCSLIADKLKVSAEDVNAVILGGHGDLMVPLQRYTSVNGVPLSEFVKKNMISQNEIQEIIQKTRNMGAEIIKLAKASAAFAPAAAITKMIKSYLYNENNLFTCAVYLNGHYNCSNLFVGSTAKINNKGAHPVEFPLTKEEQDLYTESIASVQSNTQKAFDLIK
structure (smiles),measurement,setting,value
Nc1nc(-c2cccc(C(F)(F)F)c2)cs1 [4PA-CF3],TSA melting curve raw signal,Temperature 25,"3528,09586476992"
same,TSA melting curve raw signal,Temperature 25.5,"3521,76972099321"
same,TSA melting curve raw signal,Temperature 26,"3515,44357721651"
same,TSA melting curve raw signal,Temperature 26.5,"3509,11743343981"
same,TSA melting curve raw signal,Temperature 27,"3502,7912896631"
same,TSA melting curve raw signal,Temperature 27.5,"3496,46514588642"
same,TSA melting curve raw signal,Temperature 28,"3490,13900210971"
same,TSA melting curve raw signal,Temperature 28.5,"3483,6143624971"
same,TSA melting curve raw signal,Temperature 29,"3476,38988350175"
same,TSA melting curve raw signal,Temperature 29.5,"3468,17176134374"
same,TSA melting curve raw signal,Temperature 30,"3458,89345122044"
same,TSA melting curve raw signal,Temperature 30.5,"3449,61666086928"
same,TSA melting curve raw signal,Temperature 31,"3441,08813548452"
same,TSA melting curve raw signal,Temperature 31.5,"3434,74480463775"
same,TSA melting curve raw signal,Temperature 32,"3431,63306422988"
same,TSA melting curve raw signal,Temperature 32.5,"3433,04755783933"
same,TSA melting curve raw signal,Temperature 33,"3439,08846015031"
same,TSA melting curve raw signal,Temperature 33.5,"3450,49167244057"
same,TSA melting curve raw signal,Temperature 34,"3467,07326310557"
same,TSA melting curve raw signal,Temperature 34.5,"3489,23124555062"
same,TSA melting curve raw signal,Temperature 35,"3516,74965348479"
same,TSA melting curve raw signal,Temperature 35.5,"3550,12307997406"
same,TSA melting curve raw signal,Temperature 36,"3588,6701161146"
same,TSA melting curve raw signal,Temperature 36.5,"3632,52278047685"
same,TSA melting curve raw signal,Temperature 37,"3681,13015232277"
same,TSA melting curve raw signal,Temperature 37.5,"3734,10747497721"
same,TSA melting curve raw signal,Temperature 38,"3790,66694872421"
same,TSA melting curve raw signal,Temperature 38.5,"3851,32307413445"
same,TSA melting curve raw signal,Temperature 39,"3915,60016677996"
same,TSA melting curve raw signal,Temperature 39.5,"3983,88715310611"
same,TSA melting curve raw signal,Temperature 40,"4056,33336034943"
same,TSA melting curve raw signal,Temperature 40.5,"4133,49326014565"
same,TSA melting curve raw signal,Temperature 41,"4215,01497025314"
same,TSA melting curve raw signal,Temperature 41.5,"4301,78127396551"
same,TSA melting curve raw signal,Temperature 42,"4393,43575455581"
same,TSA melting curve raw signal,Temperature 42.5,"4490,37169124646"
same,TSA melting curve raw signal,Temperature 43,"4592,69941738304"
same,TSA melting curve raw signal,Temperature 43.5,"4701,32966638299"
same,TSA melting curve raw signal,Temperature 44,"4815,85327556672"
same,TSA melting curve raw signal,Temperature 44.5,"4937,62413315095"
same,TSA melting curve raw signal,Temperature 45,"5067,14562465788"
same,TSA melting curve raw signal,Temperature 45.5,"5204,83599333482"
same,TSA melting curve raw signal,Temperature 46,"5349,70118139591"
same,TSA melting curve raw signal,Temperature 46.5,"5501,84311892238"
same,TSA melting curve raw signal,Temperature 47,"5660,17327748149"
same,TSA melting curve raw signal,Temperature 47.5,"5824,5723421521"
same,TSA melting curve raw signal,Temperature 48,"5994,36303099828"
same,TSA melting curve raw signal,Temperature 48.5,"6169,71492788648"
same,TSA melting curve raw signal,Temperature 49,"6349,90301622462"
same,TSA melting curve raw signal,Temperature 49.5,"6533,67708046246"
same,TSA melting curve raw signal,Temperature 50,"6718,43346697938"
same,TSA melting curve raw signal,Temperature 50.5,"6903,01197489117"
same,TSA melting curve raw signal,Temperature 51,"7086,14140810373"
same,TSA melting curve raw signal,Temperature 51.5,"7267,40973427596"
same,TSA melting curve raw signal,Temperature 52,"7446,07311090688"
same,TSA melting curve raw signal,Temperature 52.5,"7623,17790419487"
same,TSA melting curve raw signal,Temperature 53,"7798,35186729642"
same,TSA melting curve raw signal,Temperature 53.5,"7971,57187818721"
same,TSA melting curve raw signal,Temperature 54,"8142,18042787582"
same,TSA melting curve raw signal,Temperature 54.5,"8310,47539211232"
same,TSA melting curve raw signal,Temperature 55,"8475,6367965612"
same,TSA melting curve raw signal,Temperature 55.5,"8637,15264587991"
same,TSA melting curve raw signal,Temperature 56,"8794,24720730786"
same,TSA melting curve raw signal,Temperature 56.5,"8944,76644495546"
same,TSA melting curve raw signal,Temperature 57,"9087,23982318044"
same,TSA melting curve raw signal,Temperature 57.5,"9218,83300839243"
same,TSA melting curve raw signal,Temperature 58,"9336,46564098951"
same,TSA melting curve raw signal,Temperature 58.5,"9436,67708833889"
same,TSA melting curve raw signal,Temperature 59,"9517,94306567009"
same,TSA melting curve raw signal,Temperature 59.5,"9577,90589829803"
same,TSA melting curve raw signal,Temperature 60,"9615,75986877433"
same,TSA melting curve raw signal,Temperature 60.5,"9632,47637998784"
same,TSA melting curve raw signal,Temperature 61,"9629,58012627007"
same,TSA melting curve raw signal,Temperature 61.5,"9608,67157988917"
same,TSA melting curve raw signal,Temperature 62,"9572,5500875914"
same,TSA melting curve raw signal,Temperature 62.5,"9524,64551903011"
same,TSA melting curve raw signal,Temperature 63,"9467,03768559296"
same,TSA melting curve raw signal,Temperature 63.5,"9402,51349679748"
same,TSA melting curve raw signal,Temperature 64,"9333,57184164816"
same,TSA melting curve raw signal,Temperature 64.5,"9261,62563971527"
same,TSA melting curve raw signal,Temperature 65,"9187,49083186044"
same,TSA melting curve raw fluorescence signal,Temperature 65.5,"9112,23978010048"
same,TSA melting curve raw fluorescence signal,Temperature 66,"9036,14068242361"
same,TSA melting curve raw fluorescence signal,Temperature 66.5,"8959,64465212255"
same,TSA melting curve raw fluorescence signal,Temperature 67,"8882,7175782058"
same,TSA melting curve raw fluorescence signal,Temperature 67.5,"8805,44643012468"
same,TSA melting curve raw fluorescence signal,Temperature 68,"8728,2852860298"
same,TSA melting curve raw fluorescence signal,Temperature 68.5,"8651,13021944227"
same,TSA melting curve raw fluorescence signal,Temperature 69,"8573,32870649645"
same,TSA melting curve raw fluorescence signal,Temperature 69.5,"8495,58180428762"
same,TSA melting curve raw fluorescence signal,Temperature 70,"8418,5896254098"
same,TSA melting curve raw fluorescence signal,Temperature 70.5,"8341,60149220391"
same,TSA melting curve raw fluorescence signal,Temperature 71,"8265,01816022305"
same,TSA melting curve raw fluorescence signal,Temperature 71.5,"8189,69867306721"
same,TSA melting curve raw fluorescence signal,Temperature 72,"8115,16555879573"
same,TSA melting curve raw fluorescence signal,Temperature 72.5,"8040,74958248259"
same,TSA melting curve raw fluorescence signal,Temperature 73,"7967,12767450409"
same,TSA melting curve raw fluorescence signal,Temperature 73.5,"7893,92662128296"
same,TSA melting curve raw fluorescence signal,Temperature 74,"7821,33430208039"
same,TSA melting curve raw fluorescence signal,Temperature 74.5,"7749,70992701054"
same,TSA melting curve raw fluorescence signal,Temperature 75,"7679,18807246448"
same,TSA melting curve raw fluorescence signal,Temperature 75.5,"7609,86094414536"
same,TSA melting curve raw fluorescence signal,Temperature 76,"7542,08165155543"
same,TSA melting curve raw fluorescence signal,Temperature 76.5,"7475,0463497461"
same,TSA melting curve raw fluorescence signal,Temperature 77,"7409,10099573983"
same,TSA melting curve raw fluorescence signal,Temperature 77.5,"7344,43096825342"
same,TSA melting curve raw fluorescence signal,Temperature 78,"7280,55827608543"
same,TSA melting curve raw fluorescence signal,Temperature 78.5,"7217,66024170967"
same,TSA melting curve raw fluorescence signal,Temperature 79,"7156,47260834302"
same,TSA melting curve raw fluorescence signal,Temperature 79.5,"7096,07409325447"
same,TSA melting curve raw fluorescence signal,Temperature 80,"7036,61045690039"
same,TSA melting curve raw fluorescence signal,Temperature 80.5,"6978,28713486927"
same,TSA melting curve raw fluorescence signal,Temperature 81,"6920,87145232924"
same,TSA melting curve raw fluorescence signal,Temperature 81.5,"6863,63731764689"
same,TSA melting curve raw fluorescence signal,Temperature 82,"6807,28937755567"
same,TSA melting curve raw fluorescence signal,Temperature 82.5,"6751,29328141381"
same,TSA melting curve raw fluorescence signal,Temperature 83,"6695,78422169472"
same,TSA melting curve raw fluorescence signal,Temperature 83.5,"6641,03413791343"
same,TSA melting curve raw fluorescence signal,Temperature 84,"6587,1569082437"
same,TSA melting curve raw fluorescence signal,Temperature 84.5,"6533,84298175497"
same,TSA melting curve raw fluorescence signal,Temperature 85,"6481,33407729233"
same,TSA melting curve raw fluorescence signal,Temperature 85.5,"6429,30339853042"
same,TSA melting curve raw fluorescence signal,Temperature 86,"6377,40763821637"
same,TSA melting curve raw fluorescence signal,Temperature 86.5,"6325,81148238932"
same,TSA melting curve raw fluorescence signal,Temperature 87,"6274,52300647726"
same,TSA melting curve raw fluorescence signal,Temperature 87.5,"6222,85213595833"
same,TSA melting curve raw fluorescence signal,Temperature 88,"6171,16491119654"
same,TSA melting curve raw fluorescence signal,Temperature 88.5,"6119,12156951999"
same,TSA melting curve raw fluorescence signal,Temperature 89,"6066,61924971662"
same,TSA melting curve raw fluorescence signal,Temperature 89.5,"6013,73939632859"
same,TSA melting curve raw fluorescence signal,Temperature 90,"5961,79604131278"
same,TSA melting curve raw fluorescence signal,Temperature 90.5,"5910,31866711244"
same,TSA melting curve raw fluorescence signal,Temperature 91,"5859,96386783167"
same,TSA melting curve raw fluorescence signal,Temperature 91.5,"5810,60393842017"
same,TSA melting curve raw fluorescence signal,Temperature 92,"5761,96047868944"
same,TSA melting curve raw fluorescence signal,Temperature 92.5,"5713,35101332965"
same,TSA melting curve raw fluorescence signal,Temperature 93,"5664,77915169386"
same,TSA melting curve raw fluorescence signal,Temperature 93.5,"5615,83290965879"
same,TSA melting curve raw fluorescence signal,Temperature 94,"5566,24729616446"
same,TSA melting curve raw fluorescence signal,Temperature 94.5,"5516,6627489992"
same,TSA melting curve raw fluorescence signal,Temperature 95,"5465,82751388956"
